Columns and labels:
[1] = target: Recombinant human soluble BACE1 catalytic domain (Homo sapiens (Human), UniProt P56817); test: BACE1 HTRF FRET Assay; assay type: biochemical; details: Ki calculated from IC50 using the Cheng-Prusoff equation; QSY7-APPswe-Eu substrate, pH 5.0; read-out: BACE-1 Ki
Description: Reagents: Na^+-Acetate pH 5.0; 1% Brij-35; Glycerol; Dimethyl Sulfoxide (DMSO); Recombinant human soluble BACE1 catalytic domain (>95% pure); APP Swedish mutant peptide substrate (QSY7-APP^swe-Eu): QSY7-EISEVNLDAEFC-Europium-amide.
A homogeneous time-resolved FRET assay can be used to determine IC50 values for inhibitors of the soluble human BACE1 catalytic domain. This assay monitors the increase of 620 nm fluorescence that resulted from BACE1 cleavage of an APPswedish APP^swe mutant peptide FRET substrate (QSY7-EISEVNLDAEFC-Europium-amide). This substrate contains an N-terminal QSY7 moiety that serves as a quencher of the C-terminal Europium fluorophore (620 nm Em). In the absence of enzyme activity, 620 nm fluorescence is low in the assay and increased linearly over 3 hours in the presence of uninhibited BACE1 enzyme. Inhibition of BACE1 cleavage of the QSY7-APP^swe-Eu substrate by inhibitors is manifested as a suppression of 620 nm fluorescence.
Varying concentrations of inhibitors at 3× the final desired concentration in a volume of 10 ul are preincubated with purified human BACE1 catalytic domain (3 nM in 10 μl) for 30 minutes at 30° C. in reaction buffer containing 20 mM Na-Acetate pH 5.0, 10% glycerol, 0.1% Brij-35 and 7.5% DSMO. Reactions are initiated by addition of 10 μl of 600 nM QSY7-APP^swe-Eu substrate (200 nM final) to give a final reaction volume of 30 μl in a 384 well Nunc HTRF plate. The reactions are incubated at 30° C. for 1.5 hours. The 620 nm fluorescence is then read on a Rubystar HTRF plate reader (BMG Labtechnologies) using a 50 millisecond delay followed by a 400 millisecond acquisition time window. Inhibitor IC50 values are derived from non-linear regression analysis of concentration response curves. Ki values are then calculated from IC50 values using the Cheng-Prusoff equation using a previously determined […] of 8 μM for the QSY7-APP^swe-Eu substrate at BACE1.

[2] = target: purified human autoBACE-2 (Homo sapiens (Human), UniProt Q9Y5Z0); test: BACE-2 Assay (BACE-HTRF assay); assay type: biochemical; details: Ki calculated from IC50 using the Cheng-Prusoff equation; QSY7-EISEVNLDAEFC-Eu-amide substrate, pH 5.0
Sequence of purified human autoBACE-2 (Q9Y5Z0 63-473 limits assumed): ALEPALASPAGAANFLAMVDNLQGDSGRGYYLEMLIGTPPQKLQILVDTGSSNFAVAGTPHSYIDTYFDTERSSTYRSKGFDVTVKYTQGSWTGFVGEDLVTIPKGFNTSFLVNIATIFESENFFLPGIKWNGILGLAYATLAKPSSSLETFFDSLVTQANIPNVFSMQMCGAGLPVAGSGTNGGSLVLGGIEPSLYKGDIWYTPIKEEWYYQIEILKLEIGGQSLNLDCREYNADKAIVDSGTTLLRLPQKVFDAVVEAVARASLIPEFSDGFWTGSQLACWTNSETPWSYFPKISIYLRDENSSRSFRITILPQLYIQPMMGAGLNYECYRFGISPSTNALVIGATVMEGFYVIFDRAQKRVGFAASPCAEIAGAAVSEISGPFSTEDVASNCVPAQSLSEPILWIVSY
Experimental: Inhibitor IC50s at purified human autoBACE-2 are determined in a time-resolved endpoint proteolysis assay that measures hydrolysis of the QSY7-[…]-Eu-amide FRET peptide substrate (BACE-HTRF assay). […] DMSO is present at 5% final concentration in the assay. Following laser excitation of sample wells at 320 nm, the fluorescence signal at 620 nm is collected for 400 ms following a 50 μs delay on a RUBYstar HTRF plate reader (BMG Labtechnologies). Raw RFU data is normalized to maximum (1.0 nM BACE/DMSO) and minimum (no enzyme/DMSO) RFU values. […] The Ki values are calculated from the IC50 using the Cheng-Prusoff equation.

Sequence of Recombinant human soluble BACE1 catalytic domain (P56817 75-416): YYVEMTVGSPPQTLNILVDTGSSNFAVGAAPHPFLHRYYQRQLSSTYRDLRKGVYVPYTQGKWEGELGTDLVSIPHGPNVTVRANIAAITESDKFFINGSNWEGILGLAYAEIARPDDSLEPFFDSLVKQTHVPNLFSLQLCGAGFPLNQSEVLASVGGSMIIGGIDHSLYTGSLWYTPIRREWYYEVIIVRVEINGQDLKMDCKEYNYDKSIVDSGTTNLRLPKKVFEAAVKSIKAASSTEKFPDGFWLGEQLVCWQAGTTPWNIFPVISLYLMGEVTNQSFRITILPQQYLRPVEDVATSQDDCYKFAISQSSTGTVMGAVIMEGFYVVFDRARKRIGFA

Row | Molecule | Ki [1] [nM] | Ki [2] [nM]
1 | Cc1cnc(Oc2ccc(F)c([C@]34CO[C@@H](C5CC5)C[C@H]3C(=O)N(C)C(=N)N4)c2)c(F)c1 [Example 60, (4aR,6R,8aS)-6-cyclopropyl-8a-(2-fluoro-5-((3-fluoro-5-methylpyridin-2-yl)oxy)phenyl)-2-imino-3-methylhexahydro-1H-pyrano[3,4-d]pyrimidin-4(4aH)-one] | 121 | 125
2 | COC[C@H]1C[C@H]2C(=O)N(C)C(=N)N[C@@]2(c2cc(Oc3cc(OC)ccn3)c(F)cc2F)CO1 [Example 4, (4aR,6R,8aS)-8a-(2,4-difluoro-5-((4-methoxypyridin-2-yl)oxy)phenyl)-2-imino-6-(methoxymethyl)-3-methylhexahydro-1H-pyrano[3,4-d]pyrimidin-4(4aH)-one] | 20 | 61
3 | C[C@H]1C[C@H]2C(=O)N(C)C(=N)N[C@@]2(c2cc(O)ccc2F)CO1 [Example 64, (4aR,6S,8aS)-8a-(2-fluoro-5-hydroxyphenyl)-2-imino-3,6-dimethylhexahydro-1H-pyrano[3,4-d]pyrimidin-4(4aH)-one] | 358 | 82.7
4 | CN1C(=N)N[C@@]2(c3cc(Oc4ccncc4)ccc3F)CO[C@@H](C3CC3)C[C@H]2C1=O [Example 40, (4aR,6R,8aS)-6-cyclopropyl-8a-(2-fluoro-5-(pyridin-4-yloxy)phenyl)-2-imino-3-methylhexahydro-1H-pyrano[3,4-d]pyrimidin-4(4aH)-one] | 54 | 11
5 | COC[C@H]1C[C@H]2C(=O)N(C)C(=N)N[C@@]2(c2cc(Oc3ncccc3F)c(F)cc2F)CO1 [Example 3, (4aR,6R,8aS)-8a-(2,4-difluoro-5-((3-fluoropyridin-2-yl)oxy)phenyl)-2-imino-6-(methoxymethyl)-3-methylhexahydro-1H-pyrano[3,4-d]pyrimidin-4(4aH)-one] | 1 | 3
6 | (4aR,6S,8aS)-8a-(5-((4-chloropyridin-3-yl)oxy)-2-fluorophenyl)-2-imino-3,6-dimethylhexahydro-1H-pyrano[3,4-d]pyrimidin-4(4aH)-one [Example 75] | 58.2 | 23.3
7 | CN1C(=N)N[C@@]2(c3ccc(F)cc3F)CO[C@@H](C(F)F)C[C@H]2C1=O [Example 7, (4aR,6R,8aS)-6-(difluoromethyl)-8a-(2,4-difluorophenyl)-2-imino-3-methylhexahydro-1H-pyrano[3,4-d]pyrimidin-4(4aH)-one] | 312 | 254
8 | Cc1cncc(Oc2ccc(F)c([C@]34CO[C@@H](C5CC5)C[C@H]3C(=O)N(C)C(=N)N4)c2)n1 [Example 17, (4aR,6R,8aS)-6-cyclopropyl-8a-(2-fluoro-5-((6-methylpyrazin-2-yl)oxy)phenyl)-2-imino-3-methylhexahydro-1H-pyrano[3,4-d]pyrimidin-4(4aH)-one] | 12 | 102
9 | COC[C@H]1C[C@H]2C(=O)N(C)C(=N)N[C@@]2(c2cc(Oc3cc(C#N)ccn3)ccc2F)CO1 [Example 30, 2-(4-fluoro-3-((4aR,6R,8aS)-2-imino-6-(methoxymethyl)-3-methyl-4-oxohexahydro-1H-pyrano[3,4-d]pyrimidin-8a(8H)-yl)phenoxy)isonicotinonitrile] | 3 | 25
10 | COC[C@H]1C[C@H]2C(=O)N(C)C(=N)N[C@@]2(c2cc(Oc3cc(C#N)ccn3)c(F)cc2F)CO1 [Example 2, 2-(2,4-difluoro-5-((4aR,6R,8aS)-2-imino-6-(methoxymethyl)-3-methyl-4-oxohexahydro-1H-pyrano[3,4-d]pyrimidin-8a(8H)-yl)phenoxy)isonicotinonitrile] | 3 | 11
11 | CC(C)COc1ccc(F)c([C@]23CO[C@@H](C4CC4)C[C@H]2C(=O)N(C)C(=N)N3)c1 [Example 45, (4aR,6R,8aS)-6-cyclopropyl-8a-(2-fluoro-5-isobutoxyphenyl)-2-imino-3-methylhexahydro-1H-pyrano[3,4-d]pyrimidin-4(4aH)-one] | 45 | 25
12 | CN1C(=N)N[C@@]2(c3cc(Oc4cncc(C#N)c4)ccc3F)CO[C@@H](C3CC3)C[C@H]2C1=O [Example 27, 5-(3-((4aR,6R,8aS)-6-cyclopropyl-2-imino-3-methyl-4-oxohexahydro-1H-pyrano[3,4-d]pyrimidin-8a(8H)-yl)-4-fluorophenoxy)nicotinonitrile] | 10 | 51
13 | CN1C(=N)N[C@@]2(c3ccc(F)cc3F)CO[C@@H](C3CC3)C[C@H]2C1=O [Example 6, (4aR,6R,8aS)-6-cyclopropyl-8a-(2,4-difluorophenyl)-2-imino-3-methylhexahydro-1H-pyrano[3,4-d]pyrimidin-4(4aH)-one] | 99 | 265

Second part, the molecule after the results:

Row | Ki [1] [nM] | Ki [2] [nM] | Molecule
14 | 157 | 71.3 | C[C@H]1C[C@H]2C(=O)N(C)C(=N)N[C@@]2(c2cc(Oc3ccc(F)cn3)ccc2F)CO1 [Example 68, (4aR,6S,8aS)-8a-(2-fluoro-5-((5-fluoropyridin-2-yl)oxy)phenyl)-2-imino-3,6-dimethylhexahydro-1H-pyrano[3,4-d]pyrimidin-4(4aH)-one]
15 | 45.7 | 23.5 | C[C@H]1C[C@H]2C(=O)N(C)C(=N)N[C@@]2(c2cc(Oc3cc(F)ccc3F)ccc2F)CO1 [Example 82, (4aR,6S,8aS)-8a-(5-(2,5-difluorophenoxy)-2-fluorophenyl)-2-imino-3,6-dimethylhexahydro-1H-pyrano[3,4-d]pyrimidin-4(4aH)-one]
16 | 31.7 | 13.4 | C[C@H]1C[C@H]2C(=O)N(C)C(=N)N[C@@]2(c2cc(Oc3ccccn3)ccc2F)CO1 [Example 76, (4aR,6S,8aS)-8a-(2-fluoro-5-(pyridin-2-yloxy)phenyl)-2-imino-3,6-dimethylhexahydro-1H-pyrano[3,4-d]pyrimidin-4(4aH)-one]
17 | 44.3 | 31.5 | C[C@H]1C[C@H]2C(=O)N(C)C(=N)N[C@@]2(c2cc(Oc3ccncc3F)ccc2F)CO1 [Example 74, (4aR,6S,8aS)-8a-(2-fluoro-5-((3-fluoropyridin-4-yl)oxy)phenyl)-2-imino-3,6-dimethylhexahydro-1H-pyrano[3,4-d]pyrimidin-4(4aH)-one]
18 | 13.3 | 25.2 | Cc1cncc(Oc2ccc(F)c([C@]34CO[C@@H](C)C[C@H]3C(=O)N(C)C(=N)N4)c2)n1 [Example 67, (4aR,6S,8aS)-8a-(2-fluoro-5-((6-methylpyrazin-2-yl)oxy)phenyl)-2-imino-3,6-dimethylhexahydro-1H-pyrano[3,4-d]pyrimidin-4(4aH)-one]
19 | 43.5 | 41.3 | C[C@H]1C[C@H]2C(=O)N(C)C(=N)N[C@@]2(c2cc(Oc3ncc(F)cc3F)ccc2F)CO1 [Example 79, (4aR,6S,8aS)-8a-(5-((3,5-difluoropyridin-2-yl)oxy)-2-fluorophenyl)-2-imino-3,6-dimethylhexahydro-1H-pyrano[3,4-d]pyrimidin-4(4aH)-one]
20 | 6.6 | 15.8 | COc1cncc(Oc2ccc(F)c([C@]34CO[C@@H](C)C[C@H]3C(=O)N(C)C(=N)N4)c2)n1 [Example 65, (4aR,6S,8aS)-8a-(2-fluoro-5-((6-methoxypyrazin-2-yl)oxy)phenyl)-2-imino-3,6-dimethylhexahydro-1H-pyrano[3,4-d]pyrimidin-4(4aH)-one]
21 | 60.5 | 24.2 | CN1C(=N)N[C@@]2(c3cc(Br)ccc3F)CO[C@@H](c3ccc(F)cc3)C[C@H]2C1=O [Example 83, (4aR,6R,8aS)-8a-(5-bromo-2-fluorophenyl)-6-(4-fluorophenyl)-2-imino-3-methylhexahydro-1H-pyrano[3,4-d]pyrimidin-4(4aH)-one]
22 | 21 | 8.84 | COC[C@H]1C[C@H]2C(=O)N(C)C(=N)N[C@@]2(c2cc(OCC3CC3)ccc2F)CO1 [Example 90, (4aR,6R,8aS)-8a-(5-(cyclopropylmethoxy)-2-fluorophenyl)-2-imino-6-(methoxymethyl)-3-methylhexahydro-1H-pyrano[3,4-d]pyrimidin-4(4aH)-one]

From patent US10047098B2, “C5-C6-oxacyclic fused iminopyrimidinone compounds as bace inhibitors, compositions, and their use” (Merck Sharp & Dohme Corp., priority 2014, dated 2018)
